Results published in article PMC6431625 (Frontiers in Endocrinology, 2019).

Experiments:
FP = test system: FP; design: method as in PMID 10454504; conditions: cited from earlier work
AT1R-WT/FP-Venus dimer = molecular target: T1, AT1R-WT/FP-Venus dimer (Homo sapiens, UniProt P30556+P43088); type: cell-based; conditions: ligand 1 μM
T1 construct: SP (signal peptide) (N); expressed in transfected cells; host or cells: HEK 293

FP-RlucII = molecular target: T2, FP-RlucII (Homo sapiens, UniProt P43088); assay: Enhanced bystander BRET trafficking of FP-RlucII co-expressed with wildtype AT1R (Lyn-rGFP, rGFP-FYVE); type: cell-based; conditions: co-expressed WT-AT1R; HEK293; PGF2α 1 μM; Ang II data not shown
T2 construct: SP (signal peptide) (N); expressed in transfected cells; host or cells: HEK293

AT1R[Δ325]-Venus = molecular target: T3, AT1R[Δ325]-Venus (Homo sapiens, UniProt P30556+P43088); type: cell-based; conditions: ligand 1 μM
T3 construct: SP (signal peptide) (N); expressed in transfected cells; host or cells: HEK 293

OTR-Venus = type: cell-based, human; conditions: ligand 1 μM
AT1R-Venus = molecular target: T4, AT1R-Venus (Homo sapiens, UniProt P30556); type: cell-based; conditions: ligand 1 μM
T4 construct: SP (signal peptide) (N); expressed in transfected cells; host or cells: HEK 293
T4 sequence (P30556 1-359): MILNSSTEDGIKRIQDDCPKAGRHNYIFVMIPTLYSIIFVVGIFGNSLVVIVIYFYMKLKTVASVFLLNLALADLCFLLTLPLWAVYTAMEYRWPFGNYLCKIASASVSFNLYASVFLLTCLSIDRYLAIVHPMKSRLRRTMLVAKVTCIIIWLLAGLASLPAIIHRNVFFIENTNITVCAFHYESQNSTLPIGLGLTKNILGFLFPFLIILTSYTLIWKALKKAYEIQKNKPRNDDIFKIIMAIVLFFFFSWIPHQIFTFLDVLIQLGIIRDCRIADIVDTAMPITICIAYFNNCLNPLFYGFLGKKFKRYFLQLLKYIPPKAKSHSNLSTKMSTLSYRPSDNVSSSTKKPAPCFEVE

FP-Venus = molecular target: T5, FP-Venus (Homo sapiens, UniProt P43088); type: cell-based; conditions: ligand 1 μM
T5 construct: SP (signal peptide) (N); expressed in transfected cells; host or cells: HEK 293

AT1R-RlucII = molecular target: T6, AT1R-RlucII (Homo sapiens, UniProt P30556+P43088); assay: Enhanced bystander BRET trafficking of AT1R-RlucII co-expressed with wildtype FP (Lyn-rGFP, rGFP-FYVE); type: cell-based; conditions: ligand 1 μM; co-expressed WT FP; HEK293
T6 construct: SP (signal peptide) (N); expressed in transfected cells; host or cells: HEK293

[1] = molecular target: T7, SP-FLAG-hAT1R-KPVAT-Venus (human, UniProt P30556 1-359); assay: FRET or BRET; living HEK 293 parental cells, 37°C, Kreb's buffer pH 7.4; β-arrestin-RlucII donor, receptor-Venus acceptor co-expressed with the untagged partner receptor (AT1R-Venus, AT1R[Δ325]-Venus or OTR-Venus with FP-WT; FP-Venus with AT1R-WT); ΔBRET after PGF2α (1 μM); also other FP ligands, AT1R antagonists and endocytosis inhibitors; conditions: partners not purified
T7 construct: human angiotensin II type 1 receptor, wild type; amplified from pcDNA3/SP-FLAG-hAT1R-WT; A signal peptide (SP); BRET acceptor; also called AT1R-Venus; angiotensin II type 1 receptor; not shown: Venus (after the linker KPVAT), C-terminal, kept
T7 sequence (looked up): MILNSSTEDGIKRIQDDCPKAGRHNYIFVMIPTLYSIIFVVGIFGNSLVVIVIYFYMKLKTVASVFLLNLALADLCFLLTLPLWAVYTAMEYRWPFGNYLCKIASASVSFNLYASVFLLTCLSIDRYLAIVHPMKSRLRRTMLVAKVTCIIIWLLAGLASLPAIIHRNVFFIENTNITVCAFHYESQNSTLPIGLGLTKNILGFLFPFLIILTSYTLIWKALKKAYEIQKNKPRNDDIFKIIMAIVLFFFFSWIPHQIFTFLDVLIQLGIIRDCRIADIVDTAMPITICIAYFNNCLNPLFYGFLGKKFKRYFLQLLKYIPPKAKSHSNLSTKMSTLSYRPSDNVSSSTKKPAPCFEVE

[2] = molecular target: T7, SP-FLAG-hAT1R-KPVAT-Venus; assay: FRET or BRET; living HEK 293 cells, 37°C, Kreb's buffer pH 7.4, coelenterazine h; β-arrestin-RlucII donor, receptor-Venus acceptor expressed alone (no partner receptor); ligand-induced ΔBRET after Ang II (1 μM), followed 90 min; conditions: partners not purified

T3 sequence (P43088 whole entry, stated change not applied, one chain of several): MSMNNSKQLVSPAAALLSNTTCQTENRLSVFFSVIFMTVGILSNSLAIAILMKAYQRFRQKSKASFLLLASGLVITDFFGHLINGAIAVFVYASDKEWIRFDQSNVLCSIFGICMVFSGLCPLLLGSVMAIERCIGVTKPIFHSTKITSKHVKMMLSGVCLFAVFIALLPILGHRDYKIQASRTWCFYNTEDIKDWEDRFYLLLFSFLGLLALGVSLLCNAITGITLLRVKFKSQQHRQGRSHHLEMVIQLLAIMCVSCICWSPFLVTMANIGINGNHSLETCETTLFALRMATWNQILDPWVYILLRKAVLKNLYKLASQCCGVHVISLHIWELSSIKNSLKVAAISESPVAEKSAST
T2 sequence (P43088 whole entry, one chain of several): as the sequence (P43088 whole entry, stated change not applied, one chain of several) above
T5 sequence (P43088 whole entry): as the sequence (P43088 whole entry, stated change not applied, one chain of several) above
T6 sequence (P43088 whole entry, one chain of several): as the sequence (P43088 whole entry, stated change not applied, one chain of several) above
T1 sequence (P43088 whole entry, one chain of several): as the sequence (P43088 whole entry, stated change not applied, one chain of several) above

O=C(O)CCC/C=C\C[C@@H]1[C@@H](/C=C/[C@H](O)C2Cc3ccccc3C2)[C@@H](F)C[C@@H]1O [AL-8810]
Agonist properties at FP (FP): partial agonist properties

CCCCC[C@H](O)/C=C/[C@@H]1[C@@H](C/C=C\CCCC(=O)O)[C@@H](O)C[C@H]1O [PGF2α, prostaglandin F2α]
Ligand-induced recruitment of β-arrestin 1/2-RlucII to the AT1R-WT/FP-Venus dimer (AT1R-WT/FP-Venus dimer): did not induce recruitment
Trafficking of FP-RlucII (membrane Lyn-rGFP and endosome rGFP-FYVE bystander BRET) (FP-RlucII): loss of membrane-localized receptor and a transient increase in an early endosomal population
Ligand-induced recruitment of β-arrestin 1/2-RlucII to AT1R[Δ325]-Venus in the context of the dimer (AT1R[Δ325]-Venus): No responses were detected
Ligand-induced recruitment of β-arrestin 1/2-RlucII to OTR-Venus in the context of the dimer (OTR-Venus): No responses were detected
Ligand-induced recruitment of β-arrestin 1/2-RlucII to AT1R-Venus alone (AT1R-Venus): no responses were detected
Ligand-induced recruitment of β-arrestin 1/2-RlucII to FP-Venus alone (FP-Venus): did not induce recruitment
Trafficking of AT1R-RlucII (membrane Lyn-rGFP and endosome rGFP-FYVE bystander BRET) (AT1R-RlucII): time-dependent loss of the membrane signal and an increase in the endosomal population

B1: β-arrestin 1-RlucII (natural protein, UniProt P49407 1-418, looked up)
chain: MGDKGTRVFKKASPNGKLTVYLGKRDFVDHIDLVDPVDGVVLVDPEYLKERRVYVTLTCAFRYGREDLDVLGLTFRKDLFVANVQSFPPAPEDKKPLTRLQERLIKKLGEHAYPFTFEIPPNLPCSVTLQPGPEDTGKACGVDYEVKAFCAENLEEKIHKRNSVRLVIRKVQYAPERPGPQPTAETTRQFLMSDKPLHLEASLDKEIYYHGEPISVNVHVTNNTNKTVKKIKISVRQYADICLFNTAQYKCPVAMEEADDTVAPSSTFCKVYTLTPFLANNREKRGLALDGKLKHEDTNLASSTLLREGANREILGIIVSYKVKVKLVVSRGGLLGDLASSDVAVELPFTLMHPKPKEEPPHREVPENETPVDTNLIELDTNDDDIVFEDFARQRLKGMKDDKEEEEDGTGSPQLNNR
notes: β-arrestin 1; BRET donor; also called βarr1-RlucII
t1/2 of ligand-induced recruitment (BRET) [1]: 20 min
t1/2 of ligand-induced recruitment (BRET) [2]: < 2 min
